Test results published in patent publication US20240197596A1, “COMPOUNDS USEFUL AS HAIR DYES” (National University of Singapore, priority 2021, published 2024).
≈ marks a conversion by molar mass, not a printed value.

Tests used:
CD86 = assay: h-CLAT assay, CD86 expression by flow cytometry; assay type: cell-based, human; details: for EC150 for CD86 (lowest concentration inducing % RFI of 150): THP-1 cells, 24 h; for RFI for CD86: at CV75, 24 h
Protocol: (§1) The assay was conducted as per the literature (Toxicol In Vitro, 2006, 20, 767-73). THP-1 cells were cultured in 24-well plates (1×10^6 cells/1 mL/well) with various concentrations of each chemical (N1-N13), +ve control (DNCB), −ve control for 24 h.
(§2) THP-1 cells were cultured in 24-well plates (1×10^6 cells/mL/well) and treated with recommended concentrations of each chemical (N1-N13), positive control (DNCB) or negative control (SLS) for 24 h. THP-1 cells were cultured and treated with 8 doses of N1-N13 based on the CV75 namely, 1.2×CV75, 1×CV75, 1/1.2×CV75, 1/1.2^2×CV75, 1/1.23×CV75, 1/1.24×CV75, 1/1.2^5×CV75 and 1/1.2^6×CV75. After 24 h, cells were transferred to 1.5 mL of microtubes and centrifuged at 450 g, 5 min, 4° C. Supernatant was discarded and cells were washed with 1 mL of FACS buffer (PBS+FBS+HEPES). The cells were centrifuged at 450 g, 5 min, 4° C. 50 μL of Fc block (0.01% of Globlins Cohn fraction II, III) was added and incubated for 10 min at 4° C. The cells were stained with 20 μL APC CD54 (Mouse IgG1, K, BD Biosciences, San Diego, CA, USA), 20 μL FITC CD86 (Mouse IgG1, K, BD Biosciences, San Diego, CA, USA) or their respective isotype controls and incubated for 15 min at room temperature in dark. After incubation, the antibodies were diluted with 200 μl FACS buffer. The cells were washed with 1 mL FACS buffer twice. Further, 200 μL Propidium iodide (PI, 0.625 μg/mL) prepared in FACS buffer was added before the flow cytometry analysis. Flow cytometric analysis was performed with BD LSR Fortessa™ (Becton Dickinson, San Jose, CA, USA) In total, 10,000 living cells were analysed, and data were processed using Flowjo software (v10.6, Ashland, OR, USA). The test concentration providing a cell viability of 75% (CV75) was derived from the dose response curve and was calculated by log-linear interpolation.
(§3) Geometric mean fluorescence intensity (MFI) was measured for CD54^+ and CD86^+ cells separately and percentage relative fluorescence intensity (% RFI), reflective of CD86 and CD54 relative expression was calculated as described below. RFI was not calculated if cell viability fell below 50%.
(§4) All chemicals were tested in three independent experiments. If in two of three independent experiments at any dose exceeded 150% RFI for CD86, or 200% RFI for CD54, the chemicals could be identified as a sensitizer. Otherwise it is identified as a non-sensitizer.

CD54 = assay: h-CLAT assay, CD54 expression by flow cytometry; assay type: cell-based, human; details: for EC200 for CD54 (lowest concentration inducing % RFI of 200): THP-1 cells, 24 h; for RFI for CD54: at CV75, 24 h
Protocol: as §1, §2, §3, §4

THP-1 cells [1] = assay: MTT assay on THP-1 cells (CV75); assay type: cell-based, human
Protocol: THP-1 (human acute monocytic leukaemia cell line) cell suspension was adjusted to 1×10^5 cells per well and seeded in 96-well plates. The plate was incubated at 37° C. with 5% CO2. After 24 h, 10 mM stock solutions of N1-N13 were prepared in autoclaved milli-Q water. A series of concentrations diluted in media was prepared and added to the wells. Each concentration was performed in 6-replicates, and seeded wells with only media and no compound were used as controls while wells with only media were used as blanks. The plate was incubated for 24 h, after which 100 μL of MTT reagent was added and the plate was further incubated for 3 h before adding 100 μL of DMSO. Subsequently, the plate was shaken for 20 min, and then absorbance at 570 nm was determined using a Bio-Tek plate reader. Percentage cell viability was calculated and CV75 values were determined.

IL-1α = details: data from J Hazard Mat., 2021, 402, 123712 (FIG. 6); cited from earlier work
HaCaT cells = details: data from J Hazard Mat., 2021, 402, 123712; cited from earlier work
[2] = in vivo; cited from earlier work
[3] = Thermodynamic solubility assay (modified shake flask, LC-MS/MS); details: for solubility at 24 h: 25 °C, pH 7, water, thermodynamic from solid
Protocol: The aqueous solubilities (pH=7) of these compounds were measured using the modified shake flask method and LC-MS/MS. Each hair dye was added into a 2 mL glass vial containing Milli-Q water (1 mL) to form the precipitates at 25° C. Then the mixture was subjected to a solubility-equilibrium stage. The vials were shaken at 300 rpm at 25° C. for 24 h. The precipitate was separated by centrifugation at 23,000 g for 20 min. Subsequently, 0.5 mL of supernatant was transferred into a 1 mL Eppendorf tube, and it was centrifuged again as mentioned above. The supernatant was then used for LC-MS/MS analysis.
The mass spectrometric analysis was performed by use of a AB SCIEX QTRAP 5500 tandem mass spectrometry (MS/MS) system (AB SCIEX, Framingham, MA, USA) operating in triple quadrupole positive mode (ESI+) equipped with an AB Sciex Turbo Ion Spray interface. Acquisition and analysis of data were performed with Analyst software ver. 1.4.2 (Applied Biosystems) which performed all chromatographic peak integration. For each hair dye, a standard curve consisting of four concentrations was established.
Solvent A was composed of 0.1% [v/v] formic acid in Milli-Q water while solvent B was composed of 0.1% [v/v] formic acid in acetonitrile. A mobile phase gradient pumped at 0.6 mL/min was used to elute the hair dyes from the column. The column was equilibrated for 1 min resulting in a total run time of 5 min. The injection volume was 5.0 μL for all derivatives. To prevent compound accumulation on the needle, 50% methanol in ACN was used as needle wash for 30 s per sample.

THP-1 cells [4] = assay: h-CLAT assay on THP-1 cells: markers against OECD cut-off, prediction, cell viability; assay type: cell-based, human; details: for CD54 and CD86 marker expression against OECD cut-off: 8 doses based on CV75, 24 h
Protocol: as §1, §2, §3, §4

[5] = data from J Hazard Mat., 2021, 402, 123712, cited from earlier work
IL-8 = details: data from J Hazard Mat., 2021, 402, 123712 (FIG. 6); cited from earlier work
[6] = Milli-Q water, Water Solubility, library of old series (Table 4)
[7] = library of old series (Table 4)

Structure (SMILES): O=[N+]([O-])c1ccc(Cl)c([N+](=O)[O-])c1 [DNCB]
- EC150 for CD86 (lowest concentration inducing % RFI of 150) (CD86): 1.4 µg/mL
- RFI for CD86 (CD86): 326%
- EC200 for CD54 (lowest concentration inducing % RFI of 200) (CD54): 1.5 µg/mL
- RFI for CD54 (CD54): 450%
- CV75 (concentration affording 75% cell viability), 1 × CV75 (THP-1 cells [1]; THP-1 cells, 24 h): 3.0 µg/mL

Structure (SMILES): COCc1cc(N)ccc1N [ME-PPD, 2-(methoxymethyl)benzene-1,4-diamine]
- release of IL-1α (IL-1α): higher concentrations
- IC50 (HaCaT cells): 334 µM
- PPD-allergic individuals who develop an allergic reaction [2]: approximately 30%
- EC150 for CD86 (lowest concentration inducing % RFI of 150) (CD86): 117.9 µg/mL
- solubility at 24 h [3, 6]: 78000 µg/mL (≈ 512000 µM)
- CD54 and CD86 marker expression against OECD cut-off (THP-1 cells [4]): above the recommended threshold
- EC200 for CD54 (lowest concentration inducing % RFI of 200) (CD54): 120.5 µg/mL
- Cumulative amount at 8th hour ([5]; 8 h): 0.519 μg/cm^2
- Cumulative amount comparison of PPD vs derivatives ([5]; 8 h): 10.4
- Permeated through skin into receptor [5]: 0.0044 % of applied compound dose
- Recovered in donor compartment [5]: 89 % of applied compound dose
- Recovered in skin [5]: 3.6 % of applied compound dose
- Recovered in skin outside diffusion area [5]: 0.0042 % of applied compound dose
- Recovered in skin swabs [5]: 0.69 % of applied compound dose
- Recovered on parafilm and in washes [5]: 1.84 % of applied compound dose
- Total recovery (mean percentage parent compound recovery) [5]: 95 ± 0.79%
- CV75 (concentration affording 75% cell viability), 1 × CV75 (THP-1 cells [1]; THP-1 cells, 24 h): 144.6 µg/mL
- release of IL-8 (IL-8): higher concentrations

Structure (SMILES): CCCCCCNc1ccc(Nc2ccc(N)cc2)cc1OCCCCCC [PPD7, reference compound]
- solubility at 24 h [3, 6]: 5 µg/mL (≈ 13 µM)

Structure (SMILES): Nc1ccc(Nc2ccc(Nc3ccc(Nc4ccc(N)cc4)cc3)cc2)cc1 [PPD8, reference compound]
- Water Solubility [3, 7]: Insoluble

Structure (SMILES): Cc1ccc(CNc2ccc(Nc3ccc(N)cc3)cc2)cc1 [PPD9, reference compound]
- Water Solubility [3, 7]: Insoluble

Structure (SMILES): Cc1ccc(CNc2ccc(Nc3ccc(Nc4ccc(N)cc4)cc3)cc2)cc1 [PPD10, reference compound]
- Water Solubility [3, 7]: Insoluble

Structure (SMILES): Nc1ccc(CNc2ccc(Nc3ccc(NCc4ccc([N+](=O)[O-])cc4)cc3)cc2)cc1 [PPD11, reference compound]
- Water Solubility [3, 7]: Insoluble

Structure (SMILES): COc1ccc(CNc2ccc(Nc3ccc(NCc4ccc(O)cc4)cc3)cc2)cc1 [PPD12, reference compound]
- Water Solubility [3, 7]: Insoluble

Structure (SMILES): Cc1ccc(CNc2ccc(Nc3ccc(NCc4ccc(C)cc4)cc3)cc2)cc1 [PPD13, reference compound]
- Water Solubility [3, 7]: Insoluble

Structure (SMILES): Oc1ccc(CNc2ccc(Nc3ccc(NCc4ccc(O)cc4)cc3)cc2)cc1 [PPD14, reference compound]
- Water Solubility [3, 7]: Insoluble

Structure (SMILES): CCCCCCOC(=O)c1cc(N)ccc1N [PPD15, reference compound]
- solubility at 24 h [3, 6]: 10 µg/mL (≈ 42.3 µM)

Structure (SMILES): CCCCCCNc1ccc(N)cc1OCCCCCC [PPD16, reference compound]
- Water Solubility [3, 7]: Insoluble

Structure (SMILES): Nc1ccc(Nc2ccc(N)cc2)cc1 [PPD 1, reference compound]
- solubility at 24 h [3, 6]: 500 µg/mL (≈ 2510 µM)

Structure (SMILES): Nc1ccc(Nc2ccc(Nc3ccc(N)cc3)cc2)cc1 [PPD 2, reference compound]
- solubility at 24 h [3, 6]: 100 µg/mL (≈ 344 µM)

Structure (SMILES): CCCCC(CC)COc1cc(N)ccc1N (stereo not drawn) [PPD 3, reference compound]
- solubility at 24 h [3, 6]: 80 µg/mL (≈ 338 µM)

Structure (SMILES): CCCCCCOc1cc(N)ccc1N [PPD 4, reference compound]
- solubility at 24 h [3, 6]: 80 µg/mL (≈ 384 µM)

Structure (SMILES): CCCCCCOc1cc(Nc2ccc(N)cc2)ccc1N [PPD 5, reference compound]
- Water Solubility [3, 7]: Insoluble

Structure (SMILES): CCCCCCOC(=O)c1cc(Nc2ccc(N)cc2)ccc1N [PPD 6, reference compound]
- solubility at 24 h [3, 6]: 1 µg/mL (≈ 3.05 µM)

Structure (SMILES): Nc1ccc(N)cc1 [PPD, para-phenylenediamine]
- release of IL-1α (IL-1α): higher concentrations
- IC50 (HaCaT cells): 23.4 µM
- EC150 for CD86 (lowest concentration inducing % RFI of 150) (CD86): 39.4 µg/mL
- RFI for CD86 (CD86): 210%
- solubility at 24 h [3]: 40000 µg/mL (≈ 370000 µM)
- solubility in per cent ([3]; water): 4%
- CD54 and CD86 marker expression against OECD cut-off (THP-1 cells [4]): above the recommended threshold
- marker induction, times lower than DNCB (THP-1 cells [4]; human, 24 h): 1.6
- EC200 for CD54 (lowest concentration inducing % RFI of 200) (CD54): 35.0 µg/mL
- RFI for CD54 (CD54): 270%
- Cumulative amount at 8th hour ([5]; 8 h): 5.4 μg/cm^2
- Permeated through skin into receptor [5]: 0.038 % of applied compound dose
- Recovered in donor compartment [5]: 83 % of applied compound dose
- Recovered in skin [5]: 4.3 % of applied compound dose
- Recovered in skin outside diffusion area [5]: 0.0050 % of applied compound dose
- Recovered in skin swabs [5]: 0.82 % of applied compound dose
- Recovered on parafilm and in washes [5]: 2.19 % of applied compound dose
- Total recovery (mean percentage parent compound recovery) [5]: 93 ± 0.52%
- CV75 (concentration affording 75% cell viability), 1 × CV75 (THP-1 cells [1]; THP-1 cells, 24 h): 65.4 µg/mL
- release of IL-8 (IL-8): higher concentrations

Structure (SMILES): Cc1cc(N)ccc1N [PTD, 2-methylbenzene-1,4-diamine]
- release of IL-1α (IL-1α): higher concentrations
- IC50 (HaCaT cells): 73.1 µM
- EC150 for CD86 (lowest concentration inducing % RFI of 150) (CD86): 34.3 µg/mL
- solubility at 24 h [3]: 2500 µg/mL (≈ 20500 µM)
- CD54 and CD86 marker expression against OECD cut-off (THP-1 cells [4]): above the recommended threshold
- EC200 for CD54 (lowest concentration inducing % RFI of 200) (CD54): 35.35 µg/mL
- Recovered in donor compartment [5]: 95 % of applied compound dose
- Recovered in skin [5]: 2.1 % of applied compound dose
- Recovered in skin outside diffusion area [5]: 0.0077 % of applied compound dose
- Recovered in skin swabs [5]: 0.48 % of applied compound dose
- Recovered on parafilm and in washes [5]: 0.68 % of applied compound dose
- Total recovery (mean percentage parent compound recovery) [5]: 99 ± 0.33%
- CV75 (concentration affording 75% cell viability), 1 × CV75 (THP-1 cells [1]; human): 43.4 µg/mL
- release of IL-8 (IL-8): higher concentrations

Structure (SMILES): CCCCCCCCCCCCOS(=O)(=O)[O-].[Na+] [SLS, reference compound]
- CD54 and CD86 marker expression against OECD cut-off (THP-1 cells [4]): did not express markers
- CV75 (concentration affording 75% cell viability), 1 × CV75 (THP-1 cells [1]; THP-1 cells, 24 h): 56.0 µg/mL
